According to patent US20060058376A1, “Composition having autonomic nerve modulating activity and method of use thereof” (SUNTORY LIMITED, priority 2003, published 2006):

Assays:
Format in all cases: in vivo, human
[1] = test system: activity of autonomic nerves; assay: Heart rate variability power spectral analysis in women with symptoms of climacteric disorder, double-blind parallel comparison; details: 4 weeks, 3 soft capsules each containing 10 mg of sesamin; supine position; FIG. 3
Experimental: For 14 women who display symptoms of climacteric disorder, a test was carried out by double-blind parallel between-groups comparison. The subjects were randomly divided into two groups. Over a period of 4 weeks, 3 soft capsules each containing 10 mg of sesamin were ingested consecutively for one of the groups, and 3 placebo capsules were ingested consecutively for the other group. Before and after the ingestion of the sample, electrocardiograms were taken in a supine position, and the activity of the autonomic nerves was examined by heart rate variability power spectral analysis.

QT interval = QT interval (heart depolarization-repolarization time) after smoking; details: FIG. 2; 3 x 10 mg sesamin capsules; placebo group significant prolongation (p<0.01)
Experimental: For nine male general university students, a test was carried out by a double blind, crossover study. Specifically, 3 soft capsules each containing 10 mg of sesamin and 3 placebo capsules were ingested, and the effect of the ingestion of the capsules on the activity of autonomic nerves was examined by a heart rate variability power spectrum method according to the method by Ue, H. et al. (Ue, H. et al., Ann. Noninvasive Electrocardiol., 5: 336-345 (2000)). After the ingestion of each sample, the students smoked one cigarette over a period of 4 min. Just before and after smoking, 10 min after smoking, and 30 min after smoking, electrocardiograms were taken, and sampling was carried out at 1024 Hz using 14-bit A/D conversion. Heart rate variability obtained from the electrocardiograms were processed by fast Fourier transform for frequency analysis to provide a heart rate variability power spectrum. In order to separate and quantify the heart rate variability spectrum, spectral integral values of two frequency bands (0.04 to 0.15 Hz and 0.15 to 0.4 Hz) are mainly determined. […] Further, the heart depolarization-repolarizaton time was measured by the QT interval.

[2] = test system: activity of autonomic nerves; assay: Heart rate variability power spectrum after smoking, double blind crossover study; details: for level of LF/HF change: 3 soft capsules each containing 10 mg of sesamin, nine male university students
Experimental: For nine male general university students, a test was carried out by a double blind, crossover study. Specifically, 3 soft capsules each containing 10 mg of sesamin and 3 placebo capsules were ingested, and the effect of the ingestion of the capsules on the activity of autonomic nerves was examined by a heart rate variability power spectrum method according to the method by Ue, H. et al. (Ue, H. et al., Ann. Noninvasive Electrocardiol., 5: 336-345 (2000)). After the ingestion of each sample, the students smoked one cigarette over a period of 4 min. Just before and after smoking, 10 min after smoking, and 30 min after smoking, electrocardiograms were taken, and sampling was carried out at 1024 Hz using 14-bit A/D conversion. Heart rate variability obtained from the electrocardiograms were processed by fast Fourier transform for frequency analysis to provide a heart rate variability power spectrum. In order to separate and quantify the heart rate variability spectrum, spectral integral values of two frequency bands (0.04 to 0.15 Hz and 0.15 to 0.4 Hz) are mainly determined. The spectral integral value of the low frequency (0.04 to 0.15 Hz) band was used as a measure of the activity of the sympathetic nerves and the activity of the parasympathetic nerves, while the spectral integral value of the high frequency (0.15 to 0.4 Hz) band was used as a measure of the activity of the parasympathetic nerves. Further, the value obtained by dividing the spectral integral value of the low frequency band by the spectral integral value of the high frequency band, that is, LF/HF, was used as a measure of the balance between the activity of the sympathetic nerves and the activity of the parasympathetic nerves (Akselrod S et al., Science 213: 220-222 (1981) and Moritani T et al., J sportmed Sci. 7: 31-39 (1993)). Further, the heart depolarization-repolarizaton time was measured by the QT interval.

## c1cc2c(cc1[C@H]1OC[C@H]3[C@@H]1CO[C@@H]3c1ccc3c(c1)OCO3)OCO2 [sesamin]
[1]
  overall autonomic nerve activity: increased
  parasympathetic nerve activity: significantly increased
  sympathetic nerve activity: increased
QT interval
  prolongation of QT interval caused by smoking: no significant prolongation
[2]; 30 min after smoking
  level of LF/HF change: −0.239
[2]; just after smoking
  level of LF/HF change: +2.87
[2]; vs placebo, p<0.05, FIG. 1, 3 x 10 mg sesamin capsules
  lowering in the activity of the parasympathetic nerves caused by smoking: significantly inhibited
